From article PMC10319141, “Imidazoquinolines with improved pharmacokinetic properties induce a high IFNα to TNFα ratio in vitro and in vivo” (Frontiers in Immunology, 2023)

Columns and labels:
[1] = Stability in whole blood, U937 and RPMI; type: in vitro ADME, human; conditions: 1 µM, 37°C, over 24 h; in words
Protocol: Human blood products used in the in vitro assays (for cell stimulation and stability) were obtained from the center for transfusion medicine in Tübingen, Germany (Zentrum für Klinische Transfusionmedizin Tübingen GmbH, (ethical approval number ZKT-FoPro202106-2305-01). Test compounds (1 µM) in either culture medium (RPMI-1640 medium containing 10% fetal bovine serum, 60 mg/l Penicillin G sodium salt and 100 mg/l Streptomycin sulfate (all Biowest)), human blood (diluted 1:1 with culture medium) or a suspension of 5x10^6 cells/ml U937 in culture medium were incubated at 37°C, 450 rpm on a shaking incubator. At the indicated time points 50 µL of blood, cell suspension or medium were collected and prepared for HPLC-MS/MS-Analysis as detailed below.
All samples were extracted with 3 or 6 volumes acetonitrile containing terbuthylazine as an internal standard (ACN) relative to either sample weight or volume. Liquid samples (plasma, culture medium, cell suspensions in stability experiments) were diluted in either 3 (culture medium, cell suspensions) or 6 (plasma) volumes ACN, pellet and blood samples were extracted by addition of ACN followed by sonication for 5 min. […]
Quantification of analytes was performed on an Agilent 1260/1290 Infinity system fitted with an Agilent C18 Poroshell 120 column (4.6 x 50 mm, 2.7 µm) coupled to a triple quadrupole Sciex API 4000 MS/MS detector. […]

[2] = tested on: TNFα and IFNα in peripheral plasma; test: Cytokine induction after three consecutive daily s.c. treatments (Figure 6A, C); type: in vivo, mice; conditions: in words; for type I Interferon concentrations in plasma after the second treatment: repeated daily s.c. treatment; for secretion of TNFα after repeated treatments in comparison with IMQ and RSQ: three daily s.c. treatments
Protocol: Cytokine concentrations in samples were quantified either by ELISA (hTNFα, R&D Systems; hIFNα, Mabtech) or cytometric bead arrays (CBA, LegendPlex mouse anti-virus response panel, BioLegend) according to the manufacturer’s instructions. CBAs were acquired on a ZE5 Cell Analyzer (Bio-Rad) and analyzed using the LegendPlex Software Suite (Qognit/BioLegend). Absorbance of ELISA-samples was quantified using a Versamax microplate reader (Molecular Devices).
Formulation. Test compounds were prepared for application in either 1% Tween 80, 9% PEG400 in ultrapure water (Biowest) (i.v., i.p., p.o. application) or 5 mM citric acid in 0.9% saline (Braun) (subcutaneous application). If compounds were administered subcutaneously, injections were carried out into the neck crease.
Collection of Samples. Mice were bled from the tail vein at various timepoints. Heparin (Sigma) or K2-EDTA (Sigma) was added to blood samples to a final […] concentration of 10-15 Unit or 5 mM. Plasma was generated by centrifugation at 6800xg for 8 min at 4°C and stored at -80°C until analyzed by ELISA or CBA. Animals were sacrificed after the indicated time points by CO2 inhalation. Heart blood and organs for compound quantification by HPLC-MS/MS were collected post mortem and stored at –20°C until extracted as described above.
Dotted lines indicate the time of repeated compound applications. (A) Cytokine levels in pooled tail plasma of mice from individual treatment groups (n=3 per pool and time point), error bars represent range of two replicate measurements. (B) Peripheral blood was collected from the tail vein before, 15, 30 60, 120, 240, 360 and 480 min after s.c. treatment. Compound concentration in peripheral plasma was analyzed by HPLC-MS/MS, data presented as mean ± SD.

Structure (SMILES)	stability in whole blood and cell based (U937) assays [1]	type I Interferon concentrations in plasma after the second treatment [2]	secretion of TNFα after repeated treatments in comparison with IMQ and RSQ [2]
CCCCc1nc2c(N)nc3ccccc3c2n1CCC1CCN(C(=O)CN(C)CC(=O)N(C)C2CC(C)OC(OC3C(C)C(OC4CC(C)(OC)C(O)C(C)O4)C(C)C(=O)OC(CC)C(C)(O)C(O)C(C)N(C)CC(C)CC3(C)O)C2O)CC1 (stereo not drawn) [A1-mac]	stable	at the limit of detection	remained low
CCCCc1nc2c(N)nc3ccccc3c2n1CCC1CCNCC1 [A1]	–	at the limit of detection	remained low
CCCCc1nc2c(N)nc3ccccc3c2n1CC1CCN(C(=O)CN(C)CC(=O)N(C)[C@H]2C[C@@H](C)O[C@@H](O[C@@H]3[C@@H](C)[C@H](O[C@H]4C[C@@](C)(OC)[C@@H](O)[C@H](C)O4)[C@@H](C)C(=O)O[C@H](CC)[C@@](C)(O)[C@H](O)[C@@H](C)N(C)C[C@H](C)C[C@@]3(C)O)[C@@H]2O)CC1 [A2-mac]	stable	–	–
